# According to ChEMBL document CHEMBL3045277, “Synthesis and biological activity of novel 1H-1,4-diazepines containing benzene sulfonyl piperazine moiety” (2011):
# Legend:
# Type in all cases: functional
# Staphylococcus aureus = test: Antibacterial activity against Staphylococcus aureus by cup-plate method
# Metaphire posthuma [1] = test: Antihelminthic activity against Metaphire posthuma assessed as time of occurrence of paralysis
# Klebsiella pneumoniae = test: Antibacterial activity against Klebsiella pneumoniae by cup-plate method
# Candida albicans = test: Antifungal activity against Candida albicans by cup-plate method
# Aspergillus niger = test: Antifungal activity against Aspergillus niger by cup-plate method
# Metaphire posthuma [2] = test: Antihelminthic activity against Metaphire posthuma assessed as time of occurrence of death
SMILES,inhibition zone (IZ) (Staphylococcus aureus) [mm],Time (Metaphire posthuma [1]) [min],inhibition zone (IZ) (Klebsiella pneumoniae) [mm],inhibition zone (IZ) (Candida albicans) [mm],inhibition zone (IZ) (Aspergillus niger) [mm],Time (Metaphire posthuma [2]) [min]
CC(=O)Nc1ccc(S(=O)(=O)N2CCN(CCCC3C(C)=NCCN=C3C)CC2)cc1,19,92,21,21,19,103
CC(=O)Nc1ccc(S(=O)(=O)N2CCN(CCCC3C(c4ccccc4)=NCCN=C3c3ccccc3)CC2)cc1,17,93,19,19,18,110
CC(=O)Nc1ccc(S(=O)(=O)N2CCN(CCCC3C(C)=NCCN=C3c3ccccc3)CC2)cc1 (stereo unspecified),20,91,19,20,20,111
CC(=O)Nc1ccc(S(=O)(=O)N2CCN(CCCC3C(=O)NCCN=C3C)CC2)cc1 (stereo unspecified),16,102,17,16,17,119
CC(=O)Nc1ccc(S(=O)(=O)N2CCN(CCCC3C(=O)NCCNC3=O)CC2)cc1,13,103,15,13,15,122
Cc1cc(C2CCCCC2)n(O)c(=O)c1.NCCO [CICLOPIROX OLAMINE],,,,24,22,
O=C(O)c1cn(C2CC2)c2cc(N3CCNCC3)c(F)cc2c1=O [CIPROFLOXACIN],24,,26,,,
C1CNCCN1.C1CNCCN1.C1CNCCN1.O.O=C(O)CC(O)(CC(=O)O)C(=O)O.O=C(O)CC(O)(CC(=O)O)C(=O)O [PIPERAZINE CITRATE],,100,,,,125
